The results in this text go back to patent publication US20070099915A1, “INHIBITORS OF THE HIV INTEGRASE ENZYME” (PFIZER INC., priority 2005, published 2007).

pEC50, pIC50: −log10 of the molar value. Structures can show the parent of a compound that is named as a salt. Where two headings read alike, the source gives them in different places.

In experiment [1] the target is T1, Full-length wild type HIV-1 integrase (SF1) (Human immunodeficiency virus type 1 group M subtype B, UniProt P04585).
T1 construct: made in house; host or cells: E. coli BL21 (DE3)
The experiment can be described thus: Integrase strand-transfer scintillation proximity assay. It is filed as biochemical. The source says:
The annealed product represents preprocessed viral ds-DNA derived from the LTR U5 sequence of the viral genome. A ds-DNA control to test for non-specific interactions was made using a 3′ di-deoxy derivative of oligonucleotide #1 annealed to oligonucleotide #2. The CA overhang at the 5′ end of the non-biotinylated strand of the ds-DNA was created artificially by using a complimentary DNA oligonucleotide shortened by 2 base pairs. This configuration eliminates the requisite 3′ processing step of the integrase enzyme prior to the strand-transfer mechanism.
The annealed product had overhanging 3′ ends of poly(dA). […] The radiolabeled product was purified using a NENSORB cartridge and stored in stabilized aqueous solution (PerkinElmer).
Reagents: Streptavidin-coated polyvinyltoluene (PVT) SPA beads were purchased from Amersham Biosciences (Piscataway, N.J.). Cesium chloride was purchased from Shelton Scientific, Inc. (Shelton, Conn.). White, polystyrene, flat-bottom, non-binding surface, 96-well plates were purchased from Corning. All other buffer components were purchased from Sigma (St. Louis, Mo.) unless otherwise indicated.
Enzyme Construction: Full-length wild type HIV-1 integrase (SF1) sequence (amino acids 1-289) was constructed in a pET24a vector (Novagen, Madison, Wis.).
Enzyme Purification: Full length wild-type HIV Integrase was expressed in E. coli BL21 (DE3) cells and induced with 1 mM isopropyl-1 thio-β-D-galactopyranoside (IPTG) when cells reached an optical density between 0.8-1.0 at 600 nm. Cells were lysed by microfluidation in 50 mM HEPES pH 7.0, 75 mM NaCl, 5 mM DTT, 1 mM 4-(2-Aminoethyl)benzenesulfonylfluoride HCl (AEBSF). Lysate was then centrifuged 20 minutes at 11 k rpm in GSA rotor in Sorvall RC-5B at 4° C. Supernant was discarded and pellet resuspended in 50 mM HEPES pH 7.0, 750 mM NaCl, 5 mM DTT, 1 mM AEBSF and homogenized in a 40 mL Dounce homogenizer for 20 minutes on ice. Homogenate was then centrifuged 20 minutes at 11 k rpm in SS34 rotor in Sorvall RC-5B at 4° C. Supernant was discarded and pellet resuspended in 50 mM HEPES pH 7.0, 750 mM NaCl, 25 mM CHAPS, 5 mM DTT, 1 mM AEBSF. Preparation was then centrifuged 20 minutes at 11 k rpm in SS34 rotor in Sorvall RC-5B at 4° C.
Supernant was then diluted 1:1 with 50 mM HEPES pH 7.0, 25 mM CHAPS, 1 mM DTT, 1 mM AEBSF and loaded onto a Q-Sepharose column pre-equilibrated with 50 mM HEPES, pH 7.0, 375 mM NaCl, 25 mM CHAPS, 1 mM DTT, 1 mM AEBSF. The flow through peak was collected and NaCl diluted to 0.1 M with 50 mM HEPES pH 7.0, 25 mM CHAPS, 1 mM DTT, 0.5 mM AEBSF and loaded onto a SP-Sepharose column pre-equilibrated with 50 mM HEPES pH 7.0, 100 mM NaCl, 25 mM CHAPS, 1 mM DTT, 0.5 mM AEBSF. After washing the column with the equilibration buffer, a 100 to 400 mM NaCl gradient was run. The eluted integrase was concentrated and run on a S-300 gel diffusion column using 50 mM HEPES pH 7.0, 500 mM NaCl, 25 mM CHAPS, 1 mM DTT, 0.5 mM AEBSF. […] All columns were run in a 4° C. cold room.
Viral DNA Bead Preparation: Streptavidin-coated SPA beads were suspended to 20 mg/mL in 25 mM 3-morpholinopropanesulfonic acid (MOPS) (pH 7.2) and 1.0% NaN3. Biotinylated viral DNA was bound to the hydrated SPA beads in a batch process by combining […] of ds-DNA to 1 mg of suspended SPA beads (10 μL of 50 μM viral DNA to 1 mL of 20 mg/mL SPA beads). The mixture was incubated at 22° C. for a minimum of 20 min. with occasional mixing followed by centrifugation at 2500 rpm for 10 min.
A general note: SPA uses beads or plates that emit light when radiolabelled molecules are held near them.

The test system of experiment [2] is HIV-1 RF virus in CEM-SS cells. The experiment can be described thus: HIV-1 cell protection assay (XTT dye reduction). It is filed as cell-based. How it is done:
Six days later, 50 μl of XTT solution (1 mg/ml XTT tetrazolium and 20 nM phenazine methosulfate) were added to the wells and the plates were reincubated for four hours. Viability, as determined by the amount of XTT formazan produced, was quantified spectrophotometrically by absorbance at 450 nm.
Data from CPE assays were expressed as the percent of formazan produced in compound-treated cells compared to formazan produced in wells of uninfected, compound-free cells. […] The 50% cytotoxicity concentration (CC50) was calculated as the concentration of compound that decreased the percentage of formazan produced in uninfected, compound-treated cells to 50% of that produced in uninfected, compound-free cells. The therapeutic index was calculated by dividing the cytotoxicity (CC50) by the antiviral activity (EC50).
In general terms: Tetrazolium dyes change colour on reduction, which living cells bring about.

Where [3] appears, read: strand-transfer SPA, 246 nM integrase, 50 nM host DNA, 37° C., 50 min, read-out: IC50.
The mark [4] stands for this setting: Human immunodeficiency virus 1, 144 h, RF strain of HIV-1, CEM-SS cells, XTT read-out after six days, read-out: EC50.
[5] abbreviates: Human immunodeficiency virus 1, CEM-SS, 144 h.

`Cc1cc2c(ncc3c2c(CN2CCCC2)cn3Cc2ccc(F)cc2)c(=O)n1O` [Example 46, 3-(4-fluorobenzyl)-7-hydroxy-8-methyl-1-(pyrrolidin-1-ylmethyl)-3,7-dihydro-6H-pyrrolo[2,3-c]-1,7-naphthyridin-6-one]: in experiment [1] (setting [3]), the pIC50 (usually −log10 of the IC50, conventionally taken in molar units) is 8.08. The pEC50 (in general, the negative decadic logarithm of the EC50, by convention in mol/L) in experiment [2] (setting [4]) is 8.96.
Turning to `Cc1cc2c(ncc3c2c(CO)cn3Cc2ccc(F)cc2)c(=O)n1O` [Example 47, 3-(4-fluorobenzyl)-7-hydroxy-1-(hydroxymethyl)-8-methyl-3,7-dihydro-6H-pyrrolo[2,3-c]-1,7-naphthyridin-6-one], the pIC50 in experiment [1] was 8.22. In experiment [2] (setting [5]), this compound gave a pEC50 of 9.41.
As for `O=C1c2ncc3c(c(CNCc4ccc(F)c(F)c4)cn3Cc3ccc(F)cc3)c2CCN1O` [Example 48, 1-{[(3,4-difluorobenzyl)amino]methyl}-3-(4-fluorobenzyl)-7-hydroxy-3,7,8,9-tetrahydro-6H-pyrrolo[2,3-c]-1,7-naphthyridin-6-one], the pIC50 in experiment [1] (setting [3]) was 7.77. The pEC50 in experiment [2] (setting [4]) is 9.00.
`COCCN1CCN(Cc2cn(Cc3ccc(F)cc3)c3cnc4c(c23)CCN(O)C4=O)CC1` [Example 49, 3-(4-fluorobenzyl)-7-hydroxy-1-{[4-(2-methoxyethyl)piperazin-1-yl]methyl}-3,7,8,9-tetrahydro-6H-pyrrolo[2,3-c]-1,7-naphthyridin-6-one]: the pIC50 in experiment [1] (setting [3]) is 7.79. Also, the pEC50 in experiment [2] (setting [4]) is 8.49.
On to `CN(Cc1cn(Cc2ccc(F)cc2)c2cnc3c(c12)CCN(O)C3=O)C1CCCOC1` (stereo not shown) [Example 50, 3-(4-fluorobenzyl)-7-hydroxy-1-{[methyl(tetrahydro-2H-pyran-3-yl)amino]methyl}-3,7,8,9-tetrahydro-6H-pyrrolo[2,3-c]-1,7-naphthyridin-6-one], for which the pIC50 in experiment [1] (setting [3]) is 7.92. Also, the pEC50 in experiment [2] (setting [4]) was 8.74.
As to `CCOCCCOCc1cn(Cc2ccc(F)cc2)c2cnc3c(c12)CCN(O)C3=O` [Example 51, 1-[(3-ethoxypropoxy)methyl]-3-(4-fluorobenzyl)-7-hydroxy-3,7,8,9-tetrahydro-6H-pyrrolo[2,3-c]-1,7-naphthyridin-6-one hydrochloride], in experiment [1] (setting [3]), the negative logarithm of the IC50 (pIC50) was 7.77. In experiment [2] (setting [5]), this compound had a pEC50 of 9.40.
With `O=C1c2ncc3c(c(Cl)cn3Cc3ccc(F)cc3)c2CCN1O` [Example 52, 1-chloro-3-(4-fluorobenzyl)-7-hydroxy-3,7,8,9-tetrahydro-6H-pyrrolo[2,3-c]-1,7-naphthyridin-6-one], in experiment [1] (setting [3]), the pIC50 is 7.72. In experiment [2] (setting [4]), the pEC50 is 9.04.
With `N#Cc1cn(Cc2ccc(F)cc2)c2cnc3c(c12)CCN(O)C3=O` [Example 54, 3-(4-fluorobenzyl)-7-hydroxy-6-oxo-6,7,8,9-tetrahydro-3H-pyrrolo[2,3-c]-1,7-naphthyridine-1-carbonitrile], in experiment [1] (setting [3]), the negative-log IC50 (pIC50) is 7.70. Moreover, the pEC50 in experiment [2] (setting [4]) was 8.18.
Regarding `CC(C)COCc1cn(Cc2ccc(F)cc2)c2cnc3c(c12)CCN(O)C3=O` [Example 56, 3-(4-fluorobenzyl)-7-hydroxy-1-(isobutoxymethyl)-3,7,8,9-tetrahydro-6H-pyrrolo[2,3-c]-1,7-naphthyridin-6-one], the pIC50 in experiment [1] (setting [3]) is 7.96. The pEC50 in experiment [2] (setting [4]) is 9.49.
Taken in the same sequence, the figures for `O=C1c2ncc3c(c(COCCOCc4ccccc4)cn3Cc3ccc(F)cc3)c2CCN1O` [Example 57, 1-{[2-(benzyloxy)ethoxy]methyl}-3-(4-fluorobenzyl)-7-hydroxy-3,7,8,9-tetrahydro-6H-pyrrolo[2,3-c]-1,7-naphthyridin-6-one] were 7.92 and 9.16.
The corresponding values for `CC(C)COCCOCc1cn(Cc2ccc(F)cc2)c2cnc3c(c12)CCN(O)C3=O` [Example 58, 3-(4-fluorobenzyl)-7-hydroxy-1-[(2-isobutoxyethoxy)methyl]-3,7,8,9-tetrahydro-6H-pyrrolo[2,3-c]-1,7-naphthyridin-6-one] are 7.80 and 9.28.
The corresponding values for `CCCCOCCOCc1cn(Cc2ccc(F)cc2)c2cnc3c(c12)CCN(O)C3=O` [Example 59] are 7.80 and 8.31.
On to `CCCCOCc1cn(Cc2ccc(F)cc2)c2cnc3c(c12)CCN(O)C3=O` [Example 60, 1-(butoxymethyl)-3-(4-fluorobenzyl)-7-hydroxy-3,7,8,9-tetrahydro-6H-pyrrolo[2,3-c]-1,7-naphthyridin-6-one], for which, in experiment [1] (setting [3]), the pIC50 was 7.92. Moreover, the pEC50 in experiment [2] (setting [4]) was 9.41.
Taken in the same sequence, the figures for `O=C1c2ncc3c(c(Br)cn3Cc3ccc(F)cc3)c2CCN1O` [Example 61, 1-bromo-3-(4-fluorobenzyl)-7-hydroxy-3,7,8,9-tetrahydro-6H-pyrrolo[2,3-c]-1,7-naphthyridin-6-one] were 7.77 and 9.49.
Taken in the same sequence, the figures for `CC(=O)CCCOCc1cn(Cc2ccc(F)cc2)c2cnc3c(c12)CCN(O)C3=O` [Example 63, 3-(4-fluorobenzyl)-7-hydroxy-1-{[(4-oxopentyl)oxy]methyl}-3,7,8,9-tetrahydro-6H-pyrrolo[2,3-c]-1,7-naphthyridin-6-one] were 8.00 and 8.52.
Taken in the same sequence, the figures for `Cc1ncccc1COCc1cn(Cc2ccc(F)cc2)c2cnc3c(c12)CCN(O)C3=O` [Example 64, 3-(4-fluorobenzyl)-7-hydroxy-1-{[(2-methylpyridin-3-yl)methoxy]methyl}-3,7,8,9-tetrahydro-6H-pyrrolo[2,3-c]-1,7-naphthyridin-6-one] were 8.05 and 9.00.
Consider `COc1cccc(CCOCc2cn(Cc3ccc(F)cc3)c3cnc4c(c23)CCN(O)C4=O)c1` [Example 66], for which the negative logarithm of the IC50 (pIC50) in experiment [1] (setting [3]) was 7.89. Also, the pEC50 in experiment [2] (setting [4]) was 9.00.
Turning to `O=C1c2ncc3c(c(COCCOc4ccccc4)cn3Cc3ccc(F)cc3)c2CCN1O` [Example 67, 3-(4-fluorobenzyl)-7-hydroxy-1-[(2-phenoxyethoxy)methyl]-3,7,8,9-tetrahydro-6H-pyrrolo[2,3-c]-1,7-naphthyridin-6-one], the pIC50 in experiment [1] (setting [3]) is 7.82. Also, in experiment [2] (setting [4]), the pEC50 was 9.00.
`CC(=O)c1cn(Cc2ccc(F)cc2)c2cnc3c(c12)CCN(O)C3=O` [Example 68, 1-acetyl-3-(4-fluorobenzyl)-7-hydroxy-3,7,8,9-tetrahydro-6H-pyrrolo[2,3-c]-1,7-naphthyridin-6-one-methane (1:1)]: the pIC50 in experiment [1] (setting [3]) is 7.92. Further, the pEC50 in experiment [2] (setting [5]) was 8.52.
Consider `O=C1c2ncc3c(c(CNC4CCOCC4)cn3Cc3ccc(F)cc3)c2CCN1O` [Example 69, 3-(4-fluorobenzyl)-7-hydroxy-1-[(tetrahydro-2H-pyran-4-ylamino)methyl]-3,7,8,9-tetrahydro-6H-pyrrolo[2,3-c]-1,7-naphthyridin-6-one], for which the pIC50 in experiment [1] (setting [3]) was 7.70. In addition, the pEC50 in experiment [2] (setting [4]) was 7.57.
